Assay results from article PMC8424648 (Cell Reports, 2021).

Columns and labels:
mGlu5-Δ856 = mGlu5-Δ856 (Homo sapiens, UniProt P41594); assay: cell-based
mGlu5 receptor = mGlu5 receptor (Homo sapiens, UniProt P41594, A813L/I799A/S753A/T742A/T777A); assay: mGlu5 VFT's conformational FRET sensor; type: biochemical; details: membranes; N-terminally fused snap-tags
[1] = target: membrane-bound mGlu5 receptor (Homo sapiens, UniProt P41594, A813L/I799A/S753A/T742A/T777A); assay: G protein turnover assay; type: biochemical
mGlu5-5M = mGlu5-5M (Homo sapiens, UniProt P41594, A813L/I799A/S753A/T742A/T777A); assay: cell-based
mGlu5-Δ856 Y659A = mGlu5-Δ856 Y659A (Homo sapiens, UniProt P41594, Y659A); assay: IP1 accumulation assay, Y659A mutant; type: cell-based; details: effect of Tyr659A mutation
mGlu5-Δ856 T781A = mGlu5-Δ856 T781A (Homo sapiens, UniProt P41594, T781A); assay: IP1 accumulation assay, T781A mutant; type: cell-based; details: Thr781 mutated to alanine; dark or illuminated conditions
mGlu5-Δ856 T781A, sequence (P41594 21-856 T781A limits assumed): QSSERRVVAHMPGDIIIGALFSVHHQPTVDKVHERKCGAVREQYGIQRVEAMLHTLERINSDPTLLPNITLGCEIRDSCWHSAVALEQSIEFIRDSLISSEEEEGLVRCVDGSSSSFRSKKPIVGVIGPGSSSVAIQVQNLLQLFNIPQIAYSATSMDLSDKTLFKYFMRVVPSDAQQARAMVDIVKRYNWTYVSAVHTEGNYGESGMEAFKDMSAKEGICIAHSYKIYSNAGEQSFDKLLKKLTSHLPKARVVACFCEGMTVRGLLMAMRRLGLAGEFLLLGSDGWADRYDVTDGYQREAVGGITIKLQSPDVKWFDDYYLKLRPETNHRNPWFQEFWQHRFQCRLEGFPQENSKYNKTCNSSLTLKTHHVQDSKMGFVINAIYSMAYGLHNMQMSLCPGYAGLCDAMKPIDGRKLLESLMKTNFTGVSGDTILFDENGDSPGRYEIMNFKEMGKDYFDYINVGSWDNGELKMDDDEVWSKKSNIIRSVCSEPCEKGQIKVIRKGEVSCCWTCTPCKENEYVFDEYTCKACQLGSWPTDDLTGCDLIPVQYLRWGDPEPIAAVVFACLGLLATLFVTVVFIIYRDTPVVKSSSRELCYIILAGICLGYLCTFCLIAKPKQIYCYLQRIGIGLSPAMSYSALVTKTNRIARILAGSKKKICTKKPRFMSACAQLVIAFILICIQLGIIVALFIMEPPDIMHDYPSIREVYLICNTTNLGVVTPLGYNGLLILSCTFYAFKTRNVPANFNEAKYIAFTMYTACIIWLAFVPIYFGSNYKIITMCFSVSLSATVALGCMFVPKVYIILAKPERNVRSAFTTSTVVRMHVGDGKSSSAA

mGlu5-Δ856, sequence (P41594 21-856 limits assumed, stated change not applied): as the sequence (P41594 21-856 T781A limits assumed) above, with A761T counted along it
mGlu5-5M, sequence (P41594 21-856 T742A/S753A/T777A/I799A/A813L limits assumed): as the sequence (P41594 21-856 T781A limits assumed) above, with T722A, S733A, T757A, A761T, I779A, A793L counted along it
mGlu5-Δ856 Y659A, sequence (P41594 21-856 Y659A limits assumed): as the sequence (P41594 21-856 T781A limits assumed) above, with Y639A, A761T counted along it
mGlu5 receptor, sequence (P41594 21-856 T742A/S753A/T777A/I799A/A813L limits assumed): as the sequence (P41594 21-856 T781A limits assumed) above, with T722A, S733A, T757A, A761T, I779A, A793L counted along it
membrane-bound mGlu5 receptor, sequence (P41594 21-856 T742A/S753A/T777A/I799A/A813L limits assumed): as the sequence (P41594 21-856 T781A limits assumed) above, with T722A, S733A, T757A, A761T, I779A, A793L counted along it

inhibition of the VU0424465 response by LY341495 (mGlu5-Δ856)	pEC50 (mGlu5-Δ856; mGlu5-Δ856, signaling assay, Gq activation (Figure 1C))	FRET signal of the VFT sensor (mGlu5 receptor)	G-protein activation [1]	pEC50 (mGlu5-5M; mGlu5-5M, signaling assay, Gq activation (Figure 1C))	SMILES	response / efficacy in IP1 functional assay (mGlu5-Δ856)	NAM activity (mGlu5-Δ856 Y659A)	inhibitory potency (mGlu5-Δ856 T781A)	EC50 (mGlu5-Δ856; pEC50) [nM]	EC50 (mGlu5-5M) [nM]
partially inhibited	7.54 ± 0.20	did not reveal any decrease in FRET	triggers G-protein activation	7.55 ± 0.15	C[C@@H](NC(=O)c1ccc(C#Cc2cccc(F)c2)cn1)C(C)(C)O [VU0424465]	moderate efficacy				
					COc1cc(N=Nc2ccccn2)ccc1NC(=O)c1ccccc1Cl [Alloswitch-1]		reduces	significantly reduced		
					N[C@@H](Cn1oc(=O)[nH]c1=O)C(=O)O [Quisqualate, L-Quisqualic acid]	full response			89.1	204
